The text below walks through data of patent US9101671B2, “Methods and compositions related to clot binding compounds” (Sanford-Burnham Medical Research Institute, priority 2007, dated 2015).

One data set concerns platelets. Nature of the data set: Role of platelets in nanoparticle homing. Particulars: platelet depletion with anti-CD41 monoclonal antibody. In kind it is in vivo, mice. As for the experimental part:
(A). Blood was drawn 5 min post-injection of 4 mg/kg of CREKA-SPIO into mice and a 50 μl aliquot was run through a magnetic column. Bound CREKA-SPIO particles were eluted form the column, concentrated on a slide, and stained with anti-CD41 antibody. Some of the particles appear to be associated with platelets. (B). A low-magnification image (40×) showing CREKA-SPIO homing and clot formation in a tumor from a platelet-depleted mouse. Platelet depletion was accomplished by treating mice with 0.1 mg of an anti-CD41 monoclonal antibody as described (Van der Heyde and Gramaglia (2005)). The mice subsequently received Ni-liposomes/CREKA-SPIO as described in the legend of FIG. 2.

In another data set the test system is tumor vessels. Nature of the data set: Nanoparticle-induced blood clotting in vessels (fibrin(ogen)/CD31 staining, microscopy). In kind it is in vivo, mice. As for the experimental part:
(§1) Mice bearing MDA-MB-435 xenografts were injected with Ni-liposomes and CREKA-SPIO nanoparticles as described in the legend to FIG. 2. The mice were perfused 6 hours after the nanoparticle injection and tissues were collected. (A) Upper panels: Co-localization of nanoparticle fluorescence with CD31 staining in blood vessels; Middle panels: Co-localization of nanoparticle fluorescence and anti-fibrin(ogen) staining in tumor blood vessels. Inset—an image showing CREKA-SPIO distributed along fibrils in a tumor blood vessel; Lower panels: Lack of co-localization of nanoparticle fluorescence with anti-CD41 staining for platelets. (B) Intravital confocal microscopy of tumors using DiI-stained red blood cells as a marker of blood flow. The arrow points to a vessel in which stationary erythrocytes indicate obstruction of blood flow. Blood flow in the vessel above is not obstructed. Six successive frames from a 1-min movie (Movie 2 in Supplementary Material) are shown. (C) CREKA-coated liposomes co-localize with fibrin in tumor vessels. The results are representative of 3 independent experiments. Magnification: A and C, 600×, B, 200×.
(§2) Mice bearing MDA-MB-435 human breast cancer xenografts were intravenously injected with PBS or a bolus of 800 U/kg of heparin followed 120 min later by Ni-liposomes (or PBS) and CREKA-SPIO (or control nanoparticles). The mice received additional heparin by intraperitoneal injections (a total of 1000 U/kg) or PBS throughout the experiment. (A) Tumors were removed 6 hours after the nanoparticle injection, and magnetic signal in the tumor after different treatments was determined with SQUID. Aminated dextran SPIO served as a particle control (control SPIO). […] The magnetization values were normalized to dry weight of the tissue. Results from 3 experiments are shown. (B) Quantification of heparin effect on clotting in blood vessels. Mice were pretreated with PBS (white bars) or heparin (black bars) as described above, followed by Ni liposomes/CREKA-SPIO nanoparticles. Three sections from two tumors representing each treatment were stained with anti-CD31 for blood vessels, and the percentage of vessels positive for fluorescence and fluorescent clots was determined. […] (C) A representative example of the appearance of CREKA-SPIO particles in tumor vessels of mice treated with heparin. (D) Near-infrared imaging of mice that received Ni-liposomes followed by Cy7-labeled CREKA-SPIO with or without heparin pretreatment. The images were acquired 8 hours after the injection of the CREKA-SPIO particles using an Odyssey 2 NIR scanner (Li-COR Biosciences, Lincoln, Nebr.). The images shown are composites of 2 colors, red (700 nm channel, body and chow autofluorescence) and green (800 nm channel, Cy7). Arrows point to the tumors, arrowheads to the liver. Note the strong decrease in signal from the tumor in the heparin-pretreated mouse. A representative experiment out of 3 is shown.
The low magnification (40×) was used to produce these images because only blood vessels in which clotting had concentrated the CREKA-SPIO fluorescence are visible at this magnification. […]
For intravenous injections, the animals were anesthetized with intraperitoneal Avertin, and liposomes (2 μmol DSPC) and/or nanoparticles (1-4 mg Fe/kg body weight) were injected into the tail vein. The animals were sacrificed 5-24 h post-injection by cardiac perfusion with PBS under anesthesia, and organs were dissected and analyzed for particle homing. […]

Another data set deals with tumor blood vessels. Nature of the data set: Intravital confocal microscopy of tumor blood flow. The class given is in vivo, mice. To be noted: 4 mg/kg i.v.; Ni-liposome pre-injection; DiI-labeled erythrocytes as flow marker. On the procedure: as §1
Tumor blood flow in MDA-MB 435 xenograft-bearing mice was observed by intravital microscopy. Mice were pre-injected with Ni-liposomes and 5×10^8 of DiI-labeled erythrocytes. […] Movies were recorded at 10 min intervals up to 120 min post-injection.

The test system of a further data set is human plasma clots. Nature of the data set: Nanoparticle binding to human plasma clots in vitro. On the procedure:
(§3) Phage binding to clotted plasma proteins was determined as described (Pilch 2006). CREKA-SPIO and control SPIO were added to freshly formed plasma clots in the presence or absence of free CREKA peptide. After 10 min incubation, the clots were washed 4 times in PBS, transferred to a new tube and digested in 100 μl concentrated nitric acid. The digested material was diluted in 2 ml distilled water and the iron concentration was determined using inductively coupled plasma-optical emission spectroscopy (ICP-OES, PerkinElmer, Norwalk, Conn.).

Data set [1] deals with MDA-MB-435 human breast cancer xenografts. Nature of the data set: Tumor magnetization by SQUID magnetometer. The class given is in vivo, mice. As for the experimental part: as §2, with “The images were acquired 8 hours after the injection of the CREKA-SPIO particles using an Odyssey 2 NIR scanner (Li-COR Biosciences, Lincoln, Nebr.). The images shown are composites of 2 colors, red (700 nm channel, body and chow autofluorescence) and green (800 nm channel, Cy7). Arrows point to the tumors, arrowheads to the liver. Note the strong decrease in signal from the tumor in the heparin-pretreated mouse. A representative experiment out of 3 is shown.” left out

The subject of data set [2] is MDA-MB-435 breast cancer xenografts. Nature of the data set: Tumor homing and tissue distribution of intravenously injected particles (fluorescence microscopy). The class given is in vivo, mice. On the procedure:
CREKA-SPIO particles were intravenously injected (4 mg Fe/kg) into Balb/c nude mice bearing MDA-MB-435 human breast cancer xenograft tumors measuring 1-1.5 cm in diameter. The mice were sacrificed by perfusion 5-6 hours later and tissues were examined for CREKA-SPIO fluorescence (green). Nuclei were stained with DAPI (blue). (A) Distribution of CREKA-SPIO in tissues from MDA-MB-435 tumor mice that received 2 hours earlier an injection of PBS (A, upper panels) or Ni/DSPC/CHOL liposomes (Ni-liposomes) containing 0.2 μmol Ni in 200 μl of PBS (A, lower panels). (B) Plasma circulation half-life of CREKA-SPIO following different treatments. At least 4 time points were collected. Data were fitted to mono-exponential decay using Prizm software (GraphPad, San Diego, Calif.), and the half-life values were compared in unpaired t-test (***p<0.0001, n=10). (C) Accumulation of CREKA-SPIO nanoparticles in tumor vessels. Mice were injected and tissues collected as in panel A. Fluorescent intravascular CREKA-SPIO particles overlap with iron oxide viewed in transmitted light. Magnification: 600×. (D) Control organs of Ni-liposome/CREKA-SPIO-injected mice. Occasional spots of fluorescence are seen in the kidneys and lungs. […] Representative results from at least 3 independent experiments are shown. Magnification A and D, 200×; C, 600×.
For intravenous injections, the animals were anesthetized with intraperitoneal Avertin, and liposomes (2 μmol DSPC) and/or nanoparticles (1-4 mg Fe/kg body weight) were injected into the tail vein. The animals were sacrificed 5-24 h post-injection by cardiac perfusion with PBS under anesthesia, and organs were dissected and analyzed for particle homing. To suppress liver macrophages, mice were intravenously injected with liposomal clodronate suspension (100 μl per mouse), and the mice were used for experiments 24 hours later.

Data set [3] in a line: Nanoparticle clearance (plasma circulation half-life). The class given is in vivo, mice.
Another data set relates to mouse plasma clots. The data set can be described thus: Nanoparticle binding to mouse plasma clots in vitro. As for the experimental part:
as §3

Where [4] appears, read: after Ni-liposome pre-treatment.
The mark [5] stands for this setting: intravenous injection, no decoy pretreatment.
Setting [6] is: plain liposomes as decoy particles, injected before.

Where no end group is shown, it is not given here.

Turning to “CREKA-SPIO: Fluorescein-labeled CREKA coupled onto 50 nm superparamagnetic, amino dextran-coated iron oxide nanoparticles; at least 8,000 peptide molecules per particle (Fluorescein-CREKA; not fully specified; printed as fluorescein-CREKA; also: coupled to amino dextran-coated iron oxide nanoparticle)”, the “effect of thrombocytopenia on homing to MDA-MB-435 tumors” value with platelets was “no noticeable effect”. In addition, the “tumor vessel lumens filled with fluorescent masses (occlusion)” value in the data set on tumor vessels (after liposome pretreatment) was “up to 20%”. Moreover, in the data set on tumor vessels (heparin pretreatment), the “intravascular clotting, effect of heparin” value is listed as “essentially eliminated the intravascular clotting” and the “number of vessels with nanoparticles bound to the vessel walls, effect of heparin” value is “did not significantly reduce”. Further, the “colocalization of fibrin(ogen) staining and particle fluorescence in liver vessels” value with tumor vessels (liver) is “no colocalization”. Moreover, the “clotting in kidneys and lungs (non-RES tissues)” value in the data set on tumor vessels (low magnification images) is recorded as “no clotting in these tissues, with the exception of very rare clots in the kidneys”. Moreover, the “clot formation and blood flow in tumor blood vessels” value in the data set on tumor blood vessels is “time-dependent clot formation and obstruction of blood flow”. In the data set on human plasma clots, the “binding to plasma clots” value is “bound to mouse and human plasma clots”. The “greater accumulation in tumor, Ni-liposome-pretreated compared to PBS-pretreated mice” value in data set [1] (SQUID and fluorescence signal, tumors removed 6 hours after injection) is listed as “about 6 fold”. In data set [1] (heparin injected prior to CREKA-SPIO, SQUID), the “reduction of tumor accumulation of nanoparticles by heparin” value is given as “more than 50%”. The tumor homing result in data set [2] (Ni-liposome pretreatment 5 min or 48 h prior to injection) is “greatly increased the tumor homing”. In data set [2] (setting [4]), the “accumulation in the spleen” value is reported as “unchanged or even enhanced” and the “particles in the liver” value is “Fewer particles”. Moreover, in data set [2] (setting [5]), the accumulation in tumor entry was “did not accumulate effectively” and the “particles in reticuloendothelial system (RES) tissues” value is recorded as “high concentration of particles”. Moreover, the tumor homing entry in data set [2] (setting [6]) was “prolonged the blood half-life and tumor homing”. Besides, in data set [2] (whether Ni-liposomes were used or not), the “particles in other organs” value was “minor amounts of CREKA-SPIO particles or no particles at all”. Further, in data set [3] (RES macrophages in the liver depleted with liposomal clodronate), the “prolongation in particle half-life” value was about 5 fold. Moreover, the blood half-life result in data set [3] (setting [6]) is “prolonged the blood half-life”. For the same substance, the “prolongation of half-life in the blood” value in data set [3] (pretreatment with intravenously injected Ni-liposomes) is given as “about 5 factor”. Further, in the data set on mouse plasma clots, the “binding to plasma clots” value was “bound to mouse and human plasma clots”.
